Reference: ChEMBL document CHEMBL5046251, “Discovery of a Series of Pyrimidine Carboxamides as Inhibitors of Vanin-1” (J Med Chem, 2022)
Active and inactive are the calls of the source. No cut-off for these calls is given here.

Key:
[1] = Oral bioavailability in rat at 10 mg/kg measured upto 24 hrs by LC-MS/MS analysis; assay type: ADME, organism-based; conditions: in vivo
[2] = Plasma protein binding in beagle dog assessed as unbound fraction; assay type: ADME, cell-free, Canis lupus familiaris
[3] = system: Mus musculus; assay: Anti-colitis activity against DSS-induced BALB/c mouse model assessed as reduction in disease activity index at 0.5 to 50 mg/kg, po, qd administered for 10 days; assay type: functional, organism-based; conditions: dose 0.5-50 mg/kg, time 10.0 day
[4] = Intrinsic clearance in human liver microsomes; assay type: ADME, Microsome
[5] = Renal clearance in beagle dog assessed as glomerular filtration rate; assay type: ADME, Canis lupus familiaris; conditions: in vivo
[6] = Half life in beagle dog by LC-MS/MS analysis; conditions: in vivo
[7] = Plasma protein binding in Wistar han rat assessed as unbound fraction; assay type: ADME, cell-free
[8] = Intrinsic clearance in rat hepatocytes assessed per million cells; assay type: ADME, cell-based, Hepatocyte
[9] = Intrinsic clearance in human hepatocytes assessed per million cells; assay type: ADME, cell-based, Hepatocyte
[10] = Oral bioavailability in beagle dog; assay type: ADME, organism-based, Canis lupus familiaris; conditions: in vivo
[11] = Unbound drug concentration in serum of DSS-induced BALB/c mouse colitis model at 0.5 mg/kg administered for 10 days; assay type: ADME, organism-based; conditions: in vivo, 240 h, time 10 day
[12] = Plasma protein binding in mouse assessed as unbound fraction; assay type: ADME, cell-free
[13] = AUC in rat at 2 mg/kg, iv measured upto 24 hrs by LC-MS/MS analysis; assay type: ADME, organism-based; parameters: route intravenous, dose 2 mg/kg, time <=24; conditions: in vivo
[14] = system: CYP2A4; assay: Inhibition of CYP2A4 (unknown origin) at 3 uM relative to control; assay type: ADME; conditions: human
[15] = system: Mus musculus; assay: Anti-colitis activity against DSS-induced BALB/c mouse model assessed as increase in body weight at 0.5 to 50 mg/kg, po, qd administered for 10 days; assay type: functional, organism-based; conditions: dose 0.5-50 mg/kg, time 10.0 day
[16] = Unbound drug concentration in serum of DSS-induced BALB/c mouse colitis model at 50 mg/kg administered for 10 days; assay type: ADME, organism-based; conditions: in vivo, 240 h, time 10 day
[17] = AUC in rat at 10 mg/kg, po measured upto 24 hrs by LC-MS/MS analysis; assay type: ADME, organism-based; parameters: route oral, dose 10 mg/kg, time <=24; conditions: in vivo
[18] = Plasma protein binding in human assessed as unbound fraction; assay type: ADME, cell-free
[19] = Volume of distribution in rat at 2 mg/kg, iv measured upto 24 hrs by LC-MS/MS analysis; assay type: ADME, organism-based; conditions: in vivo
[20] = Unbound drug concentration in serum of DSS-induced BALB/c mouse colitis model at 5 mg/kg administered for 10 days; assay type: ADME, organism-based; conditions: in vivo, 240 h, time 10 day
[21] = Inhibition of beagle dog vanin-1
[22] = Clearance in rat at 2 mg/kg, iv measured upto 24 hrs by LC-MS/MS analysis; assay type: ADME, organism-based; conditions: in vivo
[23] = Intrinsic clearance in human hepatocytes assessed per million cells by relay assay method; assay type: ADME, cell-based, Hepatocyte
[24] = Half life in rat at 2 mg/kg, iv measured upto 24 hrs by LC-MS/MS analysis; conditions: in vivo
[25] = Renal clearance in rat at 2 mg/kg, iv assessed glomerular filtration rate; assay type: ADME, organism-based; conditions: in vivo
[26] = Unbound drug concentration in serum of DSS-induced BALB/c mouse colitis model at 1.5 mg/kg administered for 10 days; assay type: ADME, organism-based; conditions: in vivo, 240 h, time 10 day
[27] = Clearance in beagle dog by LC-MS/MS analysis; assay type: ADME, Canis lupus familiaris; conditions: in vivo
[28] = Volume of distribution at steady state in beagle dog by LC-MS/MS analysis; assay type: ADME, Canis lupus familiaris; conditions: in vivo, read-out: Vdss
[29] = system: Mus musculus; assay: In vivo inhibition of vanin-1 in DSS-induced BALB/c mouse colitis model serum administered for 10 days; assay type: functional, organism-based; conditions: dose 0.5-50 mg/kg, time 10.0 day

Question: Which results are given for `O=C(c1cnc(NCc2cnccn2)nc1)N1CCC2(CCOCC2)C1` [PFI-653]?
Answer: bioavailability [1]: 96%; fraction unbound [2]: 0.826; Activity [3]: Active; Intrinsic clearance [4]: < 8 µL/min/mg; CL [5]: 22%; half-life [6]: 3.4 h; fraction unbound [7]: 0.812; CLint [8]: < 3 µL/min/1e6 cells; CLint [9]: < 3 µL/min/1e6 cells; bioavailability [10]: 100%; Drug uptake(free) [11]: 1 nM; fraction unbound [12]: 0.941; AUC at 24 h [13]: 1790 ng·h/mL; inhibition at 3 µM [14]: < 5%; Activity [15]: Active; Drug uptake(free) [16]: 773 nM; AUC at 24 h [17]: 8540 ng·h/mL; fraction unbound [18]: 0.812; Vd [19]: 0.84 L/kg; Drug uptake(free) [20]: 202 nM; IC50 [21]: 0.9 nM; clearance [22]: 19 mL/min/kg; CLint [23]: < 0.16 µL/min/1e6 cells; half-life at 24 h [24]: 1 h; CL [25]: 55%; Drug uptake(free) [26]: 61 nM; clearance [27]: 3.5 mL/min/kg; Vd [28]: 0.94 L/kg; Activity [29]: Dose-Dependent Effect
